Columns and labels:
[1] = system: pancreatic exocrine function; test: 13C-dipeptide breath test in normal rats (Δ13C in exhaled CO2 after oral administration); format: in vivo, rat; conditions: for Δ^13C(‰) peak value / Peak time: oral 35 μmol/kg (5 ml/kg); for Δ^13C(‰) peak value: exhaled CO2; for Δ^13C(‰) value at 5 min after the administration / Δ^13C(‰) value at 10 min after the administration / Δ^13C(‰) value at 15 min after the administration / Δ^13C(‰) value at 20 min after the administration: normal rats, mean±SD; for Δ^13C(‰) peak value compared with the peak value of Bz-Ala-(^13C-Ala)-ONa: comparison in words
Procedure: (§1) Overnight-fasted rats (male, Wistar, 8-week old) in the awake state were individually fixed in a rat holder of a microwave irradiation apparatus. The breath was collected at a rate of about 100 to 300 ml/min using a stroke pump (Variable Stroke Pump VS-500; Shibata Kagaku Kogyo), and the CO2 concentration therein was maintained at about 3%. A Perma Pure drier (MD-050-12P; Perma Pure INC.) was set between the rat holder and the stroke pump to remove water vapor from the breath. When the CO2 concentration was stabilized, the rat was temporarily released from the rat holder. A ^13C-labeled dipeptide or a sodium salt thereof each dissolved in distilled water was administered to the stomach of the rat using an oral probe [dose: 35 μmol/kg (5 ml/kg)]. The breath was sampled with a syringe every 5 min until up to 20 min. A 15 ml sample was transferred from the syringe into a vacuum vial (10 ml), sealed and subjected to automated analysis by GC-MS (Breath MAT) [FinniganMAT]. Δ^13C(‰) was calculated from δ^13C values which are ^13C values of a sample (i.e. differences from the standard substance PDB) using the following formula. Δ^13C(‰)=(δ^13C)tmin−((δ^13C)0 min <Breath MAT Measuring Conditions>
Apparatus: Breath MAT plus (Finningan)
Using Ac-Met-(^13C-Ala)-ONa, Z-Met-(^13C-Ala)-ONa, Boc-Met-(^13C-Ala)-ONa or Boc-Phe-(^13C-Ala)-ONa [dose: 35 μmol/kg (5 ml/kg)], ^13C-breath tests were carried out in the same manner as in Example 12. The resultant Δ^13C(‰) peak values were compared with the Δ^13C(‰) peak value in the Bz-Ala-(^13C-Ala)-ONa breath test.
(§2) As in Example 12, Bz-Phe-(^13C-Ala)-ONa [dose: 12.6 mg/kg (35 μmol/kg)], Bz-Gln-(^13C-Ala)-ONa [dose: 12.0 mg/kg (35 μmol/kg)], Bz-Val-(^13C-Ala)-ONa [dose: 11.0 mg/kg (35 μmol/kg)], Bz-Tyr-(^13C-Ala)-ONa [dose: 13.2 mg/kg (35 μmol/kg)], Bz-Met-(^13C-Ala)-ONa [dose: 12.1 mg/kg (35 μmol/kg)], Bz-Ser-(^13C-Ala)-ONa [dose: 10.6 mg/kg (35 μmol/kg)], Bz-Thr-(^13C-Ala)-ONa [dose: 11.0 mg/kg (35 μmol/kg)] or Boc-Phe-(^13C-Ala)-ONa [dose: 8.84 mg/kg (24.6 μmol/kg)] was administered orally to normal rats and chronic pancreatitis rats. Then, the time course of the degree of increase of the ^13C concentration in exhaled CO2 (Δ^13C(‰)) was measured.

[2] = system: pancreatic exocrine function; test: 13C-dipeptide breath test in chronic pancreatitis rats (oleic acid injected into pancreatic duct); format: in vivo, rat; conditions: mean±SD
Procedure: as §1
Chronic pancreatitis rats were created according to the method of Mundlos et al., Pancreas 1:29 (1986). Oleic acid was injected into the pancreatic duct of 5-week old Wistar male rats. After breeding for 3 weeks, they were used in ^13C-dipeptide breath tests.
as §2

[3] = Table 1, overnight-fasted Wistar rats
[4] = Table 1, overnight-fasted Wistar rats, peak in time course of Δ13C(‰) up to 20 min

## C[C@H](NC(=O)[C@H](CCC(N)=O)NC(=O)c1ccccc1)[13C](=O)[O-].[Na+] [Na salt of Bz-Gln-(^13C-Ala), N-benzoyl-L-glutaminyl-^13C-L-alanine]
[1]; [3]
  Δ^13C(‰) peak value: 54.56 ‰
[1]; [4]
  Peak time: 10 min
[1]; oral 35 μmol/kg
  Δ^13C(‰) value at 5 min after the administration: 13.86±4.98 ‰
  Δ^13C(‰) value at 10 min after the administration: 54.56±14.10 ‰
  Δ^13C(‰) value at 15 min after the administration: 51.27±3.21 ‰
[1]; rats, oral 35 μmol/kg
  Δ^13C(‰) peak value compared with the peak value of Bz-Ala-(^13C-Ala)-ONa: higher
[2]; oral 35 μmol/kg
  Δ^13C(‰) value at 5 min after the administration: 3.41±3.44 ‰
  Δ^13C(‰) value at 10 min after the administration: 15.32±13.04 ‰
  Δ^13C(‰) value at 15 min after the administration: 28.06±19.01 ‰

## C[C@H](NC(=O)[C@H](Cc1ccccc1)NC(=O)OC(C)(C)C)[13C](=O)[O-].[Na+] [Na salt of Boc-Phe-(^13C-Ala), t-butyloxycarbonyl-L-phenylalanyl-^13C-L-alanine]
[1]; Table 2, rats
  Peak time: 20 min
  Δ^13C(‰) peak value: 46.06 ‰
[1]; oral 8.84 mg/kg (24.6 μmol/kg)
  Δ^13C(‰) value at 5 min after the administration: 5.02±3.79 ‰
  Δ^13C(‰) value at 10 min after the administration: 24.36±7.52 ‰
  Δ^13C(‰) value at 15 min after the administration: 28.13±4.43 ‰
  Δ^13C(‰) value at 20 min after the administration: 25.09±2.00 ‰
[1]; rats, oral 35 μmol/kg
  Δ^13C(‰) peak value compared with the peak value of Bz-Ala-(^13C-Ala)-ONa: higher
[2]; oral 8.84 mg/kg (24.6 μmol/kg)
  Δ^13C(‰) value at 5 min after the administration: 0.74±0.54 ‰
  Δ^13C(‰) value at 10 min after the administration: 3.43±1.46 ‰
  Δ^13C(‰) value at 15 min after the administration: 6.36±2.67 ‰
  Δ^13C(‰) value at 20 min after the administration: 10.16±3.95 ‰

## CSCC[C@H](NC(=O)c1ccccc1)C(=O)N[C@@H](C)[13C](=O)[O-].[Na+] [Na salt of Bz-Met-(^13C-Ala), N-benzoyl-L-methionyl-^13C-L-alanine]
[1]; [3]
  Δ^13C(‰) peak value: 48.88 ‰
[1]; [4]
  Peak time: 10 min
[1]; oral 35 μmol/kg
  Δ^13C(‰) value at 5 min after the administration: 19.76±10.16 ‰
  Δ^13C(‰) value at 10 min after the administration: 48.88±17.45 ‰
  Δ^13C(‰) value at 15 min after the administration: 45.53±8.00 ‰
  Δ^13C(‰) value at 20 min after the administration: 38.58±3.79 ‰
[1]; rats, oral 35 μmol/kg
  Δ^13C(‰) peak value compared with the peak value of Bz-Ala-(^13C-Ala)-ONa: higher
[2]; oral 35 μmol/kg
  Δ^13C(‰) value at 5 min after the administration: 1.52±1.47 ‰
  Δ^13C(‰) value at 10 min after the administration: 7.69±5.15 ‰
  Δ^13C(‰) value at 15 min after the administration: 14.59±8.50 ‰
  Δ^13C(‰) value at 20 min after the administration: 20.25±9.43 ‰

## C[C@H](NC(=O)[C@H](CO)NC(=O)c1ccccc1)[13C](=O)[O-].[Na+] [Na salt of Bz-Ser-(^13C-Ala), N-benzoyl-L-seryl-^13C-L-alanine]
[1]; [3]
  Δ^13C(‰) peak value: 47.48 ‰
[1]; [4]
  Peak time: 15 min
[1]; oral 35 μmol/kg
  Δ^13C(‰) value at 5 min after the administration: 8.29±4.94 ‰
  Δ^13C(‰) value at 10 min after the administration: 35.91±11.85 ‰
  Δ^13C(‰) value at 15 min after the administration: 47.48±12.89 ‰
  Δ^13C(‰) value at 20 min after the administration: 43.04±5.30 ‰
[1]; rats, oral 35 μmol/kg
  Δ^13C(‰) peak value compared with the peak value of Bz-Ala-(^13C-Ala)-ONa: higher
[2]; oral 35 μmol/kg
  Δ^13C(‰) value at 5 min after the administration: 1.07±1.43 ‰
  Δ^13C(‰) value at 10 min after the administration: 5.94±8.13 ‰
  Δ^13C(‰) value at 15 min after the administration: 10.34±11.99 ‰
  Δ^13C(‰) value at 20 min after the administration: 12.80±11.97 ‰
